This assay in a line: superoxide radical scavenging assay (SOR; NADH/PMS/NBT). To be noted: for IC50: super oxide scavenging assay, formazan absorbance at 560 nm after three minutes, concentration needed to scavenge 50% of super oxide radicals, read-out: SOI (IC50 ± SEM); for radical scavenging activity in the SOR assay: qualitative statement; for IC50 compared with propyl gallate standard: comparison in words, refers to Table 1. Type of assay: biochemical. The method, then:
The reaction mixture contained 10 μL of test samples (1 mM in dimethylsulfoxide), 90 μL of 0.1 M phosphate buffer (pH 7.4), 40 μL of (280 μM) β-nicotanamide adenine dinucleotide (NADH), 40 μL of (80 μM) nitro blue tetrazolium (NBT). The reaction was initiated by the addition of 20 μL of (8 μM) phenazine methosulphate (PMS). The solutions of NADH, NBT and PMS were prepared in phosphate buffer. The formation of superoxide was monitored by measuring the absorbance of the blue formazan dye after three minutes at 560 nm against the corresponding blank solutions in microtitre plate using Elisa (multiple reader spectra Max-3400). IC50 value represents concentration of compounds needed to scavenge 50% of super oxide radicals. Propyl gallate was used as a positive control. All chemicals used were of analytical grade (Sigma Chemicals, USA).

The term IC50 denotes the concentration needed to halve the response being measured.

As to `COc1ccc(O)c(C(C)(C)C)c1` [BHA, butylated hydroxy anisole, reference compound], the half-maximal inhibitory concentration (IC50) was found to be 96 ± 1.75 µM.

As for `Cc1cc(OC(=O)c2c(C)cc(O)cc2O)cc(O)c1C(=O)OC[C@H](O)[C@H](O)CO` [Erythrin, erythrin], the “radical scavenging activity in the SOR assay” value (shortened to “radical scavenging activity”) is listed as “exceptionally high percentage of radical scavenging activity” and the half-inhibitory concentration (IC50) stood at 127 ± 0.97 µM.

Consider `Cc1cc(OC(=O)c2c(C)cc(O)cc2O)cc(O)c1C(=O)O` [Lecanoric acid, lecanoric acid], for which the “IC50 compared with propyl gallate standard” value is listed as “lower than the propyl gallate standard”, the “radical scavenging activity” value is reported as “exceptionally high percentage of radical scavenging activity” and the IC50 was 91.5 ± 2.1 µM.

In the case of `CCCCCc1c2c(cc(O)c1C(=O)O)OC(=O)c1c(cc(OC)cc1C(=O)CCCC)O2` [Lobaric acid, lobaric acid], the “IC50 compared with propyl gallate standard” value is “lower than the propyl gallate standard”, the “radical scavenging activity” value is reported as “exceptionally high percentage of radical scavenging activity” and the IC50 was 97.9 ± 1.6 µM.

For `CCCc1cc(OC)cc(O)c1C(=O)Oc1c(OC)cc(CCC)c(C(=O)O)c1O` [Sekikiac acid, sekikaic acid], the “IC50 compared with propyl gallate standard” value was “lower than the propyl gallate standard”, the “radical scavenging activity” value is “exceptionally high percentage of radical scavenging activity” and the IC50 came to 81.97 ± 0.31 µM.

Turning to `COC(=O)c1c(C)cc(OC(=O)c2c(C)cc(OC)cc2OC)cc1OC` [permethylated lecanoric acid], the “SOR activity on per-methylation” value (permethylated derivatives of the depsides) is “lost”.

For `CCCOC(=O)c1cc(O)c(O)c(O)c1` [propyl gallate, Propyl gallate, reference compound], the concentration for half-maximal inhibition (IC50) was found to be 106 ± 1.7 µM.

The record behind these values is patent US20090048332A1, “Natural Novel Antioxidants” (HEJ Research Insitute, priority 2007, published 2009).
